Assay results as given in patent EP1304101A1, “Composition and method for use of pyridinium derivatives in cosmetic and therapeutic applications” (Torrent Pharmaceuticals Ltd, priority 2001, dated 2003).
“And” between values parts separate entries of the source, which are not always exact repeats. Identical values can stand only once.

Key:
[1] = Free radical scavenging activity on ABTS radical cation (absorbance at 730nm); assay type: biochemical
How it was run: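 ABTS radical cation generated with peroxidase and H2O2 in PBS pH 7.4, incubated 30°C for 30 min. Drug serially diluted in PBS from 0.1mM stock, mixed with radical solution and absorbance read immediately at 730nm against PBS blank. Percent antioxidant activity = [O.D test/O.D control*100]-100.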

AGE-BSA = target: T1, AGE-BSA (Bos taurus, UniProt P02769); experiment: In-vitro AGE breaking activity by ELISA (16 weeks AGE-BSA incubated with test compound); assay type: biochemical, bovine; details: for % Breakage: 37°C, 24 hours
T1 construct: Bovine serum albumin (fraction V) (BSA); from tissue
Description: AGE breaking activity has been confirmed by the screening procedure as mentioned below: • Materials: • Bovine serum albumin (fraction V) (BSA) • Glucose, analytical grade • Phosphate buffered saline (PBS) • Equipment: • Microplate ELISA Reader - Spectramax Plus (Molecular Devices, USA) • Microplate washer, (Bio -Tec Instruments, USA) • pH meter • Methods of experiment: Elisa (Enzyme Linked Immunosorbent Assay) 160 mg/ml of protein, bovine serum albumin, BSA and 1.6M glucose sugar were dissolved in phosphate buffered saline, PBS. Sodium azide was added at 0.02% concentration as a preservative. The solution was filtered asceptically through a 0.22 µM filter and kept for aging at 37°C for 16 weeks. After 16 weeks the solution was dialyzed against PBS, aliquoted and stored at - 20°C.
To determine the AGE breaking activity, 10 µg/ml of the 16 weeks AGE-BSA was incubated with different concentrations of the test compounds at 37°C for 24 hours and AGE breaking activity of the test compounds by ELISA was determined.
Different concentrations of 16 weeks AGE-BSA were coated on a microtitre plate as standard. Each concentration is coated in triplicates. • 2. The test samples were coated on microtitre plate at a concentration of 5 ng. to 20 ng per well in triplicates. • 3. The plate was incubated at 37°C for one hour. • 4. After incubation the plate was washed with PBST (PBS with 0.05% Tween 20). • 5. Blocking with 5% skimmed milk in PBS at 37°C for one hour was done. • 6. The plate was washed with PBST. • 7. Primary antibody against AGE-BSA was added and the plate is incubated at 37°C for one hour. • 8. The plate was washed with PBST • 9. Secondary antibody anti rabbit HRPO (Horse-Radish Per Oxidase) conjugate was added and the plate is incubated at 37°C for one hour. • 10. The plate was washed with PBST. • 11. Colour development with OPD (orthophenylenediamine dihydrochloride) and hydrogen peroxide was done. • 12. OD (optical density) at (450nm reading - 620nm reading) was measured after incubation at 37°C for 15 minutes with Microplate ELISA Reader.
The breaker activity of the compounds were determined by the following formula: % Breaker activity =(OD450-620 Control - OD450-620 Test)/(OD450-620 Control)x 100 [formula] OD450-620Control= Absorbance of 20ng AGE-BSA after incubation at 37°C for 24 hours without test compound OD450-620Test= Absorbance of 20ng AGE-BSA after incubation at 37°C for 24 hours with required concentration of test compound

Maillard reaction = experiment: AGE inhibiting activity, Method I (BSA + ribose, fluorescence); assay type: biochemical; details: 37° C for 7 days
Description: The following method was used to determine the inhibitory effect of the test compound on Maillard reaction in-vitro.
Addition of compound was done in aseptic conditions. Sodium azide (0.02%) was also added in this solution in order to prevent microbial growth. A separate tube containing BSA, ribose and sodium azide in the same concentration and buffer as above, but without any test compound, was also incubated as positive control.
After incubation at 37° C for 7 days, 40 micro litre sample from each tube was removed and diluted with PBS to have final concentration of BSA at 1mg/ml. The fluorescence of all the samples was measured at Excitation Maximum of 355nM and the Emission Maximum of 460nM using f-MAX Fluorimeter (Molecular Device, USA). In order to study the effect of test compound on fluorescence, freshly prepared compound solution was mixed with previously incubated positive control (i.e. BSA + ribose), so as to achieve same concentration of all the components as that of test samples.
The percent inhibition of test compound was measured as follows: % Inhibition =(F4 - F3)/(F4)X 100 [formula] Where F3 = Fluorescence of BSA + ribose + compound,F4 is fluorescence of incubated (BSA + ribose) + freshly added test compound.

Rat Tail Tendon Collagen = experiment: In-vivo AGE breaking: collagen solubility in rat tail tendon of STZ-diabetic rats after 8 weeks of treatment; design: species or system male wister rats; details: 8 weeks treatment
Description: The results are mentioned in Table 3 below:
A brief summary of observation is as follows.

[2] = comparison in words based on Table 2

T1 sequence (P02769 25-607): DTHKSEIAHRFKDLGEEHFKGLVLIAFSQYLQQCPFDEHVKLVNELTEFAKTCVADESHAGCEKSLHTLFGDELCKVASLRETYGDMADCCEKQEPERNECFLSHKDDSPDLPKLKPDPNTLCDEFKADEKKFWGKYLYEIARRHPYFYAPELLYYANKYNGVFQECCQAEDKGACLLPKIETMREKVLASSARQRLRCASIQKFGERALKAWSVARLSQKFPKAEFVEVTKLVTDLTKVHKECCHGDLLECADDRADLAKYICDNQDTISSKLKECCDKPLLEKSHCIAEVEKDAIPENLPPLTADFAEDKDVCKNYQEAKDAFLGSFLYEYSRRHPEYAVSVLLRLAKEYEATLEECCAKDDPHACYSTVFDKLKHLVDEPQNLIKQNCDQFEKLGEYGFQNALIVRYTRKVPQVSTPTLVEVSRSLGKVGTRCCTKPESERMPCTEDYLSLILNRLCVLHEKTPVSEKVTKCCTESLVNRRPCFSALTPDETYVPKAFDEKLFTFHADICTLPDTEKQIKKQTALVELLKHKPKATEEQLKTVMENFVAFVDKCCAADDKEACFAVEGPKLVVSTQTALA

## O=C(NCCO)c1ccc[n+](CC(=O)c2cccs2)c1 [Compound 90, 1-(2-Thien-2'-yl-2-oxoethyl)-3-((2-hydroxyethyl)aminocarbonyl) pyridinium bromide]
[1]; 11.5µM
  Relative Free Radical Scavenging Activity(%) on ABTS: 47.8%
[1]; 23.0µM
  Relative Free Radical Scavenging Activity(%) on ABTS: 58.8%
[1]; 46.0µM
  Relative Free Radical Scavenging Activity(%) on ABTS: 78.2%
[1]; 92.5µM
  Relative Free Radical Scavenging Activity(%) on ABTS: 99.5%
[1]; 925µM
  Relative Free Radical Scavenging Activity(%) on ABTS: 100%
AGE-BSA; 10 mM test compound
  % Breakage: 50%

## CS(=O)(=O)NNC(=O)c1ccc[n+](CC(=O)c2cccs2)c1.[Br-] [Compound 5, 1-(2-thien-2'-yl-2-oxoethyl) -3-(methanesulfonylhydrazinocarbonyl) pyridinium bromide]
[1]; 11.5µM
  Relative Free Radical Scavenging Activity(%) on ABTS: 47.2%
[1]; 23.0µM
  Relative Free Radical Scavenging Activity(%) on ABTS: 65.6%
[1]; 46.0µM
  Relative Free Radical Scavenging Activity(%) on ABTS: 83.7%
[1]; 92.5µM
  Relative Free Radical Scavenging Activity(%) on ABTS: 100%
AGE-BSA; 10 mM test compound
  % Breakage: 16%
AGE-BSA; 50 mM test compound
  % Breakage: 68%
Maillard reaction; 10mM
  %Inhibition (Day 7): 70%
Rat Tail Tendon Collagen; 10.0mg/kg
  % Improvement in collagen solubility with respect to untreated control subject.: 88.80%

## O=C(NNC(=O)c1ccc[n+](CC(=O)c2cccs2)c1)c1ccc[n+](CC(=O)c2cccs2)c1.[Cl-].[Cl-] [Compound 33, N, N'-bis [3-carbonyl-1-(2-thien-2'-yl-2-oxoethyl)pyridinium] hydrazine dichloride]
[1]; 11.5µM
  Relative Free Radical Scavenging Activity(%) on ABTS: 58.4%
[1]; 23 µM
  Relative Free Radical Scavenging Activity(%) on ABTS: 72.8%
[1]; 46 µM
  Relative Free Radical Scavenging Activity(%) on ABTS: 98.5%
[1]; 92.5µM
  Relative Free Radical Scavenging Activity(%) on ABTS: 100%
AGE-BSA; 5 mM test compound
  % Breakage: 20%
AGE-BSA; [2]
  AGE breaking activity compared to PTB: superior
Maillard reaction; 2.5mM
  %Inhibition (Day 7): 68.4%
Rat Tail Tendon Collagen; 15.0 mg/kg
  % Improvement in collagen solubility with respect to untreated control subject.: 80.45%

## CCOC(=O)C[n+]1cccc(C(=O)NCCOC(=O)c2ccccc2)c1.[Br-] [Compound 7, 1-(2-ethoxy-2-oxoethyl) -3-(2-(benzoyloxy)ethylaminocarbonyl) pyridinium bromide]
AGE-BSA; 20 mM test compound
  % Breakage: 36%
Maillard reaction; 10mM
  %Inhibition (Day 7): 51%

## CS(=O)(=O)NNC(=O)c1ccc[n+](CC(=O)c2cc([N+](=O)[O-])cs2)c1.[Br-] [Compound 64, 1-(2-(4-nitrothien-2-yl)-2-oxoethyl)-3-(methanesulfonyl hydrazinocarbonyl) pyridinium bromide]
[1]; 11.5µM, listed as Compound No.64, 11.5 µM
  Relative Free Radical Scavenging Activity(%) on ABTS: 41.8% and 26.01%
[1]; 23.0µM, listed as Compound No.64, 23 µM
  Relative Free Radical Scavenging Activity(%) on ABTS: 55.7% and 57.39%
[1]; 46.0µM, listed as Compound No.64, 46 µM
  Relative Free Radical Scavenging Activity(%) on ABTS: 72.2% and 99.30%
[1]; 92.5µM, listed as Compound No.64, 92.5 µM
  Relative Free Radical Scavenging Activity(%) on ABTS: 99.0% and 99.62%
[1]; 925µM
  Relative Free Radical Scavenging Activity(%) on ABTS: 100%
AGE-BSA; 10 mM test compound
  % Breakage: 60.94%
AGE-BSA; [2]
  AGE breaking activity compared to PTB: superior
  potency (AGE breaking activity compared to PTB): significantly much higher

## O=C(NNC(=O)c1ccc[n+](CC(=O)c2cc([N+](=O)[O-])cs2)c1)c1ccc[n+](CC(=O)c2cc([N+](=O)[O-])cs2)c1 [Compound 56, N, N'-bis [3-carbonyl-1-(2-(4-nitrothien-2-yl)-2-oxoethyl)pyridinium] hydrazine dichloride]
[1]; 11.5µM
  Relative Free Radical Scavenging Activity(%) on ABTS: 43.0%
[1]; 23 µM
  Relative Free Radical Scavenging Activity(%) on ABTS: 57.2%
[1]; 46 µM
  Relative Free Radical Scavenging Activity(%) on ABTS: 71.6%
[1]; 92.5µM
  Relative Free Radical Scavenging Activity(%) on ABTS: 97.7%
[1]; 925µM
  Relative Free Radical Scavenging Activity(%) on ABTS: 100%
AGE-BSA; 10 mM test compound
  % Breakage: 75.92%

## CCOC(=O)NNC(=O)c1ccc[n+](CC(=O)c2cccs2)c1 [Compound 54, 1-(2-thien-2'-yl-2-oxoethyl)-3-(ethoxycarbonyl hydrazinocarbonyl) pyridinium bromide]
[1]; 11.5µM
  Relative Free Radical Scavenging Activity(%) on ABTS: 5.22%
[1]; 23.0µM
  Relative Free Radical Scavenging Activity(%) on ABTS: 15.45%
[1]; 46.0µM
  Relative Free Radical Scavenging Activity(%) on ABTS: 46.82%
[1]; 92.5µM
  Relative Free Radical Scavenging Activity(%) on ABTS: 77.07%
AGE-BSA; 10 mM test compound
  % Breakage: 33.43%
Maillard reaction; 2.5mM
  %Inhibition (Day 7): 46.3%

## CCCCOC(=O)c1ccc[n+](CC(=O)Nc2ccccc2)c1.[Cl-] [Compound 93, 1-(2- Phenylamino-2-oxoethyl) -3-(n-butyloxycarbonyl) pyridinium chloride]
[1]; 11.5µM
  Relative Free Radical Scavenging Activity(%) on ABTS: 8.5%
[1]; 23.0µM
  Relative Free Radical Scavenging Activity(%) on ABTS: 8.6%
[1]; 46.0µM
  Relative Free Radical Scavenging Activity(%) on ABTS: 9.6%
[1]; 92.5µM
  Relative Free Radical Scavenging Activity(%) on ABTS: 11.4%
[1]; 925µM
  Relative Free Radical Scavenging Activity(%) on ABTS: 25.0%
AGE-BSA; 10 mM test compound
  % Breakage: 57%

## CCOC(=O)C[n+]1cccc(C(=O)NNc2ccccn2)c1.[Br-] [Compound 4, 1-(2-ethoxy-2-oxoethyl) -3-(2-(2-pyridyl) hydrazinocarbonyl) pyridinium bromide]
[1]; 11.5µM
  Relative Free Radical Scavenging Activity(%) on ABTS: 58.2%
[1]; 23.0µM
  Relative Free Radical Scavenging Activity(%) on ABTS: 64.3%
[1]; 46.0µM
  Relative Free Radical Scavenging Activity(%) on ABTS: 69.3%
[1]; 92.5µM
  Relative Free Radical Scavenging Activity(%) on ABTS: 98.6%
[1]; 925µM
  Relative Free Radical Scavenging Activity(%) on ABTS: 100%
AGE-BSA; 10 mM test compound
  % Breakage: 30%
AGE-BSA; [2]
  AGE breaking activity compared to PTB: superior

## CS(=O)(=O)NNC(=O)c1ccc[n+](CC(=O)N2CCC(Cc3ccccc3)CC2)c1.[Cl-] [Compound 51, 1-(2-(4-benzylpiperidin-1-yl)-2-oxoethyl)-3-(methanesulfonyl hydrazinocarbonyl) pyridinium chloride]
[1]; 11.5µM
  Relative Free Radical Scavenging Activity(%) on ABTS: 0.00%
[1]; 23.0µM
  Relative Free Radical Scavenging Activity(%) on ABTS: 21.64%
[1]; 46.0µM
  Relative Free Radical Scavenging Activity(%) on ABTS: 52.82%
[1]; 92.5µM
  Relative Free Radical Scavenging Activity(%) on ABTS: 83.94%
AGE-BSA; 10 mM test compound
  % Breakage: 20.94%

## O=C(NNC(=O)c1ccc[n+](CC(=O)c2cccs2)c1)c1ccc[n+](CC(=O)c2cccs2)c1.[Br-].[Br-] [Compound 6, N, N'-bis [3-carbonyl-1-(2-thien-2'-yl-2-oxoethyl)pyridinium] hydrazine dibromide]
AGE-BSA; 5 mM test compound
  % Breakage: 53%
AGE-BSA; [2]
  AGE breaking activity compared to PTB: superior
Rat Tail Tendon Collagen; 7.5mg/kg
  % Improvement in collagen solubility with respect to untreated control subject.: 56.70%

## Cc1ccc(C(=O)C[n+]2cccc(C(=O)NNS(C)(=O)=O)c2)s1.[Cl-] [Compound 63, 1-(2-(5-methylthien-2-yl)-2-oxoethyl)-3-(methanesulfonyl hydrazinocarbonyl) pyridinium chloride]
[1]; 11.5µM
  Relative Free Radical Scavenging Activity(%) on ABTS: 10.75%
[1]; 23.0µM
  Relative Free Radical Scavenging Activity(%) on ABTS: 47.20%
[1]; 46.0µM
  Relative Free Radical Scavenging Activity(%) on ABTS: 88.64%
[1]; 92.5µM
  Relative Free Radical Scavenging Activity(%) on ABTS: 99.18%
AGE-BSA; 10 mM test compound
  % Breakage: 25.17%
Maillard reaction; 6.25mM
  %Inhibition (Day 7): 58.15%

## O=C(C[n+]1cccc(C(=O)NNC(=O)c2ccc[n+](CC(=O)NC3CC3)c2)c1)NC1CC1 [Compound 39, N, N'-bis-[3-carbonyl-1-(2-cyclopropylamino-2-oxoethyl)pyridinium] hydrazine dichloride]
[1]; 11.5µM
  Relative Free Radical Scavenging Activity(%) on ABTS: 43.0%
[1]; 23.0µM
  Relative Free Radical Scavenging Activity(%) on ABTS: 62.8%
[1]; 46.0µM
  Relative Free Radical Scavenging Activity(%) on ABTS: 95.6%
[1]; 92.5µM
  Relative Free Radical Scavenging Activity(%) on ABTS: 98%
AGE-BSA; 5 mM test compound
  % Breakage: 22.8%
AGE-BSA; [2]
  AGE breaking activity compared to PTB: superior
Rat Tail Tendon Collagen; 6.0mg/kg
  % Improvement in collagen solubility with respect to untreated control subject.: 28.00%

## CC(C)S(=O)(=O)NNC(=O)c1ccc[n+](CC(=O)c2cccs2)c1 [Compound 50, 1-(2-thien-2'-yl-2-oxoethyl)-3-(isopropylsulfonyl hydrazinocarbonyl) pyridinium bromide]
[1]; 11.5µM
  Relative Free Radical Scavenging Activity(%) on ABTS: 3.30%
[1]; 23.0µM
  Relative Free Radical Scavenging Activity(%) on ABTS: 23.06%
[1]; 46.0µM
  Relative Free Radical Scavenging Activity(%) on ABTS: 54.95%
[1]; 92.5µM
  Relative Free Radical Scavenging Activity(%) on ABTS: 89.31%
AGE-BSA; 10 mM test compound
  % Breakage: 31.45%
AGE-BSA; [2]
  AGE breaking activity compared to PTB: superior

## CS(=O)(=O)NNC(=O)c1ccc[n+](CC(=O)c2ccc(Cl)s2)c1.[Br-] [Compound 55, 1-(2-(5-chlorothien-2-yl)-2-oxoethyl)-3-(methanesulfonyl hydrazinocarbonyl) pyridinium bromide]
[1]; 11.5µM
  Relative Free Radical Scavenging Activity(%) on ABTS: 46.47%
[1]; 23.0µM
  Relative Free Radical Scavenging Activity(%) on ABTS: 84.97%
[1]; 46.0µM
  Relative Free Radical Scavenging Activity(%) on ABTS: 99.50%
[1]; 92.5µM
  Relative Free Radical Scavenging Activity(%) on ABTS: 99.93%
AGE-BSA; 10 mM test compound
  % Breakage: 40.85%
